“Also recorded” adds a separate entry of the source. Where a name gives a salt, the structure may show the parent alone. Read-outs that look alike come from different tables or passages of the source.
How the values were obtained:
in vitro = conditions: Aedes albopictus
L. sigmodontis = test: In vivo L. sigmodontis screening assay, worm length; parameters: species or system Litomosoides sigmodontis in BALB/c mice
Wolbachia = conditions: ref Hermans et al., 2001; cited from earlier work
[1] = tested on: W. pipientis wAlbB in C6/36 (wAlbB) cells; test: microbe, parasite or virus in culture; assay type: cell-based, Wolbachia pipientis; conditions: for Dose response behaviour in titration series: 6 doses from 10 to 0.3 μM; for log reduction at 10 µM: Wolbachia pipientis, C6/36, 216 h, read-out: 16S log drop, 10 μM, 9 days, single agent screening
[2] = tested on: Wolbachia of L. sigmodontis; test: animal or person; assay type: in vivo, Wolbachia of Litomosoides sigmodontis in BALB/c mice; conditions: for log reduction at 25 mg/kg/day: ip, 240 h, read-out: wLs ftsz log drop in vivo
C6/36 (wAlbB) cells = conditions: 10 μM, luminescence vs vehicle-treated control
O gutturosa Wolbachia = assay type: cell-based, Wolbachia of Onchocerca gutturosa; conditions: for Reduction in Wolbachia (wsp:gst log drop from vehicle controls): 5 days; for Effect on Wolbachia load (in words): 12.5 to 0.195 μM
[3] = reduced regimen, 25 MKD for 10 days

Structure (SMILES): Nc1nc(NC2CC2)c2ncn([C@H]3C=C[C@@H](CO)C3)c2n1 [Abacavir Sulfate]
- cytotoxicity at 10 µM (in vitro): 0%

Structure (SMILES): O=C(O)c1cn(C2CC2)c2cc(N3CCNCC3)c(F)cc2c1=O [Ciprofloxacin hydrochloride]
- cytotoxicity at 10 µM (in vitro): 0%
- Effect on worm length (in words) (L. sigmodontis; standard doses tested): did not reduce
- Activity in other cell-based Wolbachia assays (Wolbachia): no activity

Structure (SMILES): COc1cc(/C=C/C(=O)CC(=O)/C=C/c2ccc(O)c(OC)c2)ccc1O [Curcumin]
- cytotoxicity at 10 µM (in vitro): 0%
- Dose response behaviour in titration series [1]: activity only at the highest concentration

Structure (SMILES): CC(=O)Oc1cccc2c1C(=O)c1c(OC(C)=O)cc(C(=O)O)cc1C2=O [Diacerein]
- cytotoxicity at 10 µM (in vitro): 0%

Structure (SMILES): CCCCC(CC)COC(=O)CC(C(=O)OCC(CC)CCCC)S(=O)(=O)[O-].CCCCC(CC)COC(=O)CC(C(=O)OCC(CC)CCCC)S(=O)(=O)[O-].[Ca+2] (centres unmarked) [Docusate Calcium]
- wLs ftsz log drop in vivo ([2]; 200 MKD IP for 14 days): 1.0 log
- Ls length reduction in vivo (%) (L. sigmodontis; 200 MKD IP for 14 days): 20.0%
- Cytotoxicity (%) (C6/36 (wAlbB) cells): 0%

Structure (SMILES): C[C@H]1c2cccc(O)c2C(=O)C2=C(O)[C@]3(O)C(=O)C(C(N)=O)=C(O)[C@@H](N(C)C)[C@@H]3[C@@H](O)[C@@H]21 [Doxycycline]
- log reduction at 25 mg/kg/day [2]: 2.2
- cytotoxicity at 7 µM (in vitro): 0%
- Reduction in Wolbachia (wsp:gst log drop from vehicle controls) (O gutturosa Wolbachia; 0.195 μM): 0.77 log
- Reduction in Wolbachia (wsp:gst log drop from vehicle controls) (O gutturosa Wolbachia; 0.781 μM): 0.14 log
- Reduction in Wolbachia (wsp:gst log drop from vehicle controls) (O gutturosa Wolbachia; 3.125 μM): 0.21 log
- Reduction in Wolbachia (wsp:gst log drop from vehicle controls) (O gutturosa Wolbachia; 12.5 μM): 0.80 log
- Effect on Wolbachia load (in words) (O gutturosa Wolbachia): reduced the Wolbachia load
- 16S log drop in vitro ([1]; doxycycline gold standard, 7 μM, 9 days): 1.6 log

Structure (SMILES): CCC1(C)CC(=O)NC1=O (centres unmarked) [Ethosuximide]
- log reduction at 10 µM [1]: ≥ 1.6

Structure (SMILES): CCOc1ccc2nc(S(N)(=O)=O)sc2c1 [Ethoxzolamide]
- cytotoxicity at 10 µM (in vitro): 19%

Structure (SMILES): COc1ccc2c(c1)c(CC(=O)O)c(C)n2C(=O)c1ccc(Cl)cc1 [Indomethacin]
- cytotoxicity at 10 µM (in vitro): 0%
- log reduction at 10 µM [1]: ≥ 1.6

Structure (SMILES): NNC(=O)c1ccncc1 [Isoniazid]
- cytotoxicity at 10 µM (in vitro): 0.3%

Structure (SMILES): CO[C@@H]1[C@@H](O[C@@H]2O[C@H](C)[C@@H](O[C@H]3C[C@@](C)(O)[C@@H](OC(=O)CC(C)C)[C@H](C)O3)[C@H](N(C)C)[C@H]2O)[C@@H](CC=O)C[C@@H](C)[C@@H](O)/C=C/C=C/C[C@@H](C)OC(=O)C[C@H]1O [Kitasamycin]
- log reduction at 10 µM [1]: ≥ 1.6

Structure (SMILES): CCOC(=O)N1CCC(=C2c3ccc(Cl)cc3CCc3cccnc32)CC1 [Loratadine]
- cytotoxicity at 10 µM (in vitro): 20.7%
- Effect on worm length (in words) (L. sigmodontis; standard doses tested): no effect

Structure (SMILES): C=C1c2cccc(O)c2C(=O)C2=C(O)[C@]3(O)C(=O)C(C(N)=O)=C(O)[C@@H](N(C)C)[C@@H]3[C@@H](O)[C@H]12 [Methacycline hydrochloride]
- cytotoxicity at 10 µM (in vitro): 0%
- Dose response behaviour in titration series [1]: active at all tested concentrations to the same extent
- log reduction at 10 µM [1]: ≥ 1.6

Structure (SMILES): CN(C)c1ccc(O)c2c1C[C@H]1C[C@H]3[C@H](N(C)C)C(O)=C(C(N)=O)C(=O)[C@@]3(O)C(O)=C1C2=O [Minocycline]
- log reduction at 25 mg/kg/day [2]: 3.78
- Reduction in Wolbachia load compared with the same dose/regimen of doxycycline ([2]; methacycline 50 MKD, minocycline 25 MKD for 10 days, P < 0.05): significantly greater
- Activity in the L. sigmodontis mouse model (in words) ([2]; mouse, in vivo): demonstrated activity
- Effect on Wolbachia load (in words) [2, 3]: significantly reduced
- Effect on Wolbachia load (in words) ([2]; standard doses tested): significantly reduced
- cytotoxicity at 10 µM (in vitro): 0%
- Effect on worm length (in words) (L. sigmodontis; standard doses tested): significantly reduced
- log reduction at 10 µM [1]: ≥ 1.6

Structure (SMILES): COc1c(N2C[C@@H]3CCCN[C@@H]3C2)c(F)cc2c(=O)c(C(=O)O)cn(C3CC3)c12 [Moxifloxacin]
- Activity in the L. sigmodontis mouse model (in words) ([2]; levofloxacin and moxifloxacin: data not shown / unpublished observations): active
- Effect on Wolbachia load (in words) (O gutturosa Wolbachia): greatly reduced the Wolbachia load at all concentrations tested

Structure (SMILES): CC1(C)NC(=O)N(c2ccc([N+](=O)[O-])c(C(F)(F)F)c2)C1=O [Nilutamide]
- cytotoxicity at 10 µM (in vitro): 0.01%

Structure (SMILES): NC[C@@H]1O[C@H](O[C@H]2[C@@H](O)[C@H](O[C@@H]3[C@@H](O)[C@H](N)C[C@H](N)[C@H]3O[C@H]3O[C@H](CO)[C@@H](O)[C@H](O)[C@H]3N)O[C@@H]2CO)[C@H](N)[C@@H](O)[C@@H]1O [Paromomycin sulfate]
- cytotoxicity at 10 µM (in vitro): 0%
- Dose response behaviour in titration series [1]: showed a dose response
- log reduction at 10 µM [1]: ≥ 1.6

Structure (SMILES): CO[C@H]1/C=C/O[C@@]2(C)Oc3c(C)c(O)c4c(O)c(c(/C=N/N5CCN(C6CCCC6)CC5)c(O)c4c3C2=O)NC(=O)/C(C)=C\C=C\[C@H](C)[C@H](O)[C@@H](C)[C@@H](O)[C@@H](C)[C@H](OC(C)=O)[C@@H]1C [Rifapentine]
- Activity in the L. sigmodontis mouse model (in words) ([2]; mouse, in vivo): demonstrated activity
- Effect on Wolbachia load (in words) ([2]; standard doses tested): significantly reduced
- cytotoxicity at 10 µM (in vitro): 20%
- Reduction in Wolbachia (wsp:gst log drop from vehicle controls) (O gutturosa Wolbachia; 0.195 μM): 0.99 log
- Reduction in Wolbachia (wsp:gst log drop from vehicle controls) (O gutturosa Wolbachia; 0.781 μM): 0.78 log
- Reduction in Wolbachia (wsp:gst log drop from vehicle controls) (O gutturosa Wolbachia; 3.125 μM): 0.77 log
- Reduction in Wolbachia (wsp:gst log drop from vehicle controls) (O gutturosa Wolbachia; 12.5 μM): 1.04 log
- Effect on Wolbachia load (in words) (O gutturosa Wolbachia): greatly reduced the Wolbachia load at all concentrations tested
- Effect on worm length (in words) (L. sigmodontis; standard doses tested): significantly reduced
- log reduction at 10 µM [1]: ≥ 1.6

Structure (SMILES): C[C@@H]1CN(c2c(F)c(N)c3c(=O)c(C(=O)O)cn(C4CC4)c3c2F)C[C@H](C)N1 [Sparfloxacin]
- log reduction at 25 mg/kg/day [2]: 0.6
- Activity in the L. sigmodontis mouse model (in words) ([2]; mouse, in vivo): demonstrated activity; also recorded: active
- Effect on Wolbachia load (in words) [2, 3]: did not significantly affect
- Effect on Wolbachia load (in words) ([2]; standard doses tested): significantly reduced
- cytotoxicity at 10 µM (in vitro): 0%
- Effect on worm length (in words) (L. sigmodontis; [3]): did not significantly affect
- Effect on worm length (in words) (L. sigmodontis; standard doses tested): significantly reduced

Structure (SMILES): [H]/N=C(/N)NS(=O)(=O)c1ccc(N)cc1 [Sulfaguanidine]
- Dose response behaviour in titration series [1]: active at all tested concentrations to the same extent

Structure (SMILES): C[C@H]1COc2c(N3CCN(C)CC3)c(F)cc3c(=O)c(C(=O)O)cn1c23 [levofloxacin]
- Activity in the L. sigmodontis mouse model (in words) ([2]; mouse, in vivo): inactive

Reference: paper PMC4266796 (International Journal for Parasitology: Drugs and Drug …, 2014)
